Assay results reported in US20260091141A1, “GENE EDITING METHODS, SYSTEMS, AND COMPOSITIONS FOR TREATING SPINAL MUSCULAR ATROPHY” (The Broad Institute, Inc., priority 2023, published 2026).

Key:
SMN protein [1] = experiment: SMN protein levels in Δ7SMA mESCs by Western blot, normalized to histone H3; format: cell-based, mouse
Excerpt: Precise deletions are defined as those that remove ≥4 nt of ISS-N1 including ≥4 nt of the 3′-hnRNP A1/A2 domain. […] Precise deletions are defined as those that enable the addition of five or more C-terminal amino acids to SMNΔ7 (SMNΔ7mod) to restore protein stability. […] The observed fraction of precise deletions, splice acceptor (SA) deletions, and other indels are shown. […] FIG. 1I provides stacked bar charts showing SMN2 splice variants following editing with C-nuc and C-CBE, as measured by high-throughput sequencing of mRNA transcripts amplified with exon 6 and polyA-primers. Splicing activity of exon 7 spliced and unspliced sub-fractions is shown. Asterisks indicate *≤0.05. **≤0.01, and ***≤0.005.
(§1) Risdiplam doses of 1.0, 0.5, 0.25, or 0.1 μM were used (shown from left to right in the graph). […] The asterisk indicates p<0.05 by Welch's two-tailed t-test. […] UG=unrelated guide; NT=no treatment.
(§2) UG-unrelated guide; NT=no treatment.

SMN2 transcript = experiment: SMN2 / exon 7 mRNA transcript levels in Δ7SMA mESCs; format: cell-based, mouse
Experimental: as §1, §2

SMN2 exon 7 splicing = SMN2 exon 7 splicing by RT-PCR (exons 6 to 8) and automated electrophoresis in Δ7SMA mESCs; format: cell-based, mouse
Experimental: To assess whether nuclease-mediated editing of ISS-N1 improved exon 7 splicing, reverse-transcription PCR (RT-PCR) of SMN2 was performed from exons 6 to 8, and SMNΔ7 and full-length SMN products were quantified by automated electrophoresis (FIG. 1C).
For Δ7SMA mESCs nusinersen experiments, cells were transfected with 20 nM of fully 2′-O-methoxyethyl (MOE)-modified ASO (5′-[…]-3′) (SEQ ID NO: 469) on a phosphorothioate backbone (TriLink), using Lipofectamine 3000 (ThermoFisher Scientific). After 24 hours media was replaced every other day with fresh mESC+2i media. For splicing rescue by risdiplam, mESC media was supplemented with 0.1-1 μM of risdiplam (RG7916, Selleck Chemicals LLC) in DMSO, as indicated. Cells were harvested at the indicated timepoints.
mRNA was isolated from […] mESCs with the RNeasy mini kit (Qiagen), and reverse transcription was performed using SuperScript IV (ThermoFisher) according to the manufacturer's protocols. For targeted SMN2 qPCR and splice product quantitation by automated electrophoresis, reverse transcription was performed with random hexamers. Splicing inclusion of SMN2 exon 7 was quantified by automated electrophoresis using Tape Station (Agilent). For unbiased SMN2 splice product analysis by high-throughput sequencing, reverse transcription was performed using a custom oligo-dT primer with a Read 2 Illumina sequencing stub. […]

SMN protein [2] = experiment: Western blot of SMN protein in Δ7SMA mESCs; format: cell-based, mouse; conditions: normalized to histone H3
Experimental: Cells harvested for western blot were washed with ice-cold PBS and incubated at 4° C. for 30 min while rocking in RIPA lysis buffer (ThermoFisher) supplemented with 1 mM PMSF (ThermoFisher) and complete EDTA-free protease inhibitor cocktail (Roche). Lysates were clarified by centrifugation at 12,000 rpm at 4° C. for 20 min. Lysates were normalized using BCA (Pierce BCA Protein Assay Kit) and combined with 4× Laemelli buffer (BioRad) and DTT (ThermoFisher) at a final concentration of 1 mM. 10 μg of reduced protein were loaded per gel lane, and transfer was performed with an iBlot 2 dry blotting system (ThermoFisher) using the following program: 20V for 1 min, then 23 V for 4 min, then 25 V for 2 min, for a total transfer time of 7 minutes. Blocking was performed at room temperature for 60 minutes with block buffer: 1% BSA in TBST (150 mM NaCl, 0.5% Tween-20, 50 mM Tris-Cl, pH 7.5).
Membranes were then incubated in primary antibody diluted in block buffer for 2 hours at room temperature. After a washing, secondary antibodies diluted in TBST were added and incubated for 1 hour at room temperature. Membranes were washed again and imaged using a LI-COR Odyssey. Wash steps were 3×5-minute washes in TBST. […]

SMN2 mRNA = experiment: RT-qPCR of SMN2 mRNA abundance in Δ7SMA mESCs; format: cell-based, mouse
Experimental: To investigate how exon 8 SA disruption affects SMN2 transcripts, reverse transcription quantitative PCR (RT-qPCR) was performed to measure the abundance of SMN2 mRNA in treated and control Δ7SMA mESCs. The terminal sequence of SMN2, including intron 7 and the 3′ untranslated region (UTR) of exon 8, encode negative regulators of gene expression and mRNA transcript stability^21,71,72. Alternative splicing at the terminus of SMN2 therefore may result in increased SMN protein levels. […]
To investigate whether risdiplam and nusinersen treatment of Δ7SMA mESCs affect SMN2 transcript abundance, RT-qPCR was performed, and SMN2 mRNA levels were quantified in treated and genome edited cells (FIG. 7G). […] In contrast, a 1.8-fold reduction of SMN2 mRNA was detected 48 hours after nusinersen treatment relative to untreated Δ7SMA mESCs (Welch's two-tailed t-test p<0.005) that explains the relative reduction in SMN protein levels compared to the base editing approach (FIG. 2G).
mRNA was isolated from […] mESCs with the RNeasy mini kit (Qiagen), and reverse transcription was performed using SuperScript IV (ThermoFisher) according to the manufacturer's protocols. For targeted SMN2 qPCR and splice product quantitation by automated electrophoresis, reverse transcription was performed with random hexamers. […]

Δ7SMA mice = experiment: Electrophysiological measurements (CMAP, MUNE) in Δ7SMA mice; format: in vivo, mouse; conditions: PND12, 2.5×10^13 vg/kg Zolgensma, 0.1 mg/kg risdiplam IP daily
Experimental: Compound muscle action potential (CMAP) amplitude and motor unit number estimation (MUNE) from the gastrocnemius muscle of treated animals was performed to assess loss of motor neuron functional integrity, a key feature of SMA and preclinical SMA models^131. […] MUNE were reduced by 50% in untreated Δ7SMA animals compared to heterozygous mice. […] In contrast, little or no improvement in MUNE was observed following Zolgensma or 0.1 mg/kg risdiplam administration (50% and 75% relative to heterozygotes respectively, Kruskal-Wallis test p>0.6). […] Thus, neonatal ICV injection of AAV9-ABE measurably rescues SMA pathophysiology of spinal motor neurons.
Compound muscle action potential (CMAP) and motor unit number estimate (MUNE) measurements were performed as previously described^178. Briefly, at PND12 the right sciatic nerve was stimulated with a pair of insulated 28-gauge monopolar needles (Teca, Oxford Instruments Medical, NY) placed in proximity to the sciatic nerve in the proximal hind limb.
Recording electrodes consisted of a pair of fine ring wire electrodes (Alpine Biomed, Skovlunde, Denmark). […]
For MUNE, an incremental stimulus technique similar to a previously described procedure was used^178. […] The peak-to-peak amplitude of each individual incremental response was calculated by subtracting the amplitude of the prior response. […]

SMN protein [3] = conditions: patient tissues; cited from earlier work
SMN protein [4] = conditions: SMA patients; cited from earlier work
DNA = conditions: SpCas9 mutation relative to SEQ ID NO: 209; UniProtKB Q99ZW2 entry; cited from earlier work

Compound	SMN protein levels, increase compared to Δ7SMA mESCs (SMN protein [1])	effect on SMN2 transcript levels (SMN2 transcript)	exon 7 splicing (SMN2 exon 7 splicing)	increase in SMN protein levels relative to untreated (SMN protein [2])	increase in SMN2 transcripts relative to untreated cells (SMN2 mRNA)	MUNE relative to heterozygotes (Δ7SMA mice)	increase of SMN protein levels (SMN protein [3])	increase of SMN protein levels in patient tissues (SMN protein [4])	Function/Characteristic (as reported) (DNA)
Cc1cn2nc(-c3cc(=O)n4cc(N5CCNC6(CC6)C5)ccc4n3)cc(C)c2n1 [risdiplam]	9.5 fold	interfered with the endogenous regulation of SMN transcript levels	89±4.3%	9.1 fold	1.6 fold	75%	~2 fold	~2 fold	
H840A: SpCas9 mutation relative to SEQ ID NO: 209									Nickase mutant which cleaves the non-
